The record followed here is ChEMBL document CHEMBL3301361, “Experimental in vitro DMPK and physicochemical data on a set of publicly disclosed compounds”.

Converted amounts (≈) assume the structure as drawn.

Series [1] is described as follows: physchem. Particulars: octan-1-ol/water.
The nature of series [2]: physchem. As to conditions: pH 7.4 buffer.

For `Cn1c2ccccc2c2cc(NC(=O)CCc3ccncc3)ccc21`, the logD in the series “physchem [1]” (pH 7.4, LogD7.4) amounted to 3.8. In addition, the thermodynamic solubility in “physchem [2]” was 11 µM (≈ 3.62 µg/mL).
On the same counts, the results for `COc1ccc(C)c(N(C)c2ccnc(Nc3cc(N4CCOCC4)cc(N4CCOCC4)c3)n2)c1` are 3.18 and 11.5 µM (≈ 5.64 µg/mL).
As to `Cc1c(Cl)cccc1S(=O)(=O)Nc1nc(CC(=O)N2CCN(C)CC2)cs1`, the logD in “physchem [1]” (pH 7.4) turned out to be 0.57. In “physchem [2]”, this compound gave a solubility (thermodynamic) of 1100 µM (≈ 470 µg/mL).
`CCCc1c(O)c(O)c(C(=O)O)c2cc(Cc3ccccc3)c(C)cc12`: the logD in the series “physchem [1]” (pH 7.4, LogD7.4) stood at 2.6. In the series “physchem [2]”, the solubility (thermodynamic) is 204 µM (≈ 71.6 µg/mL).
On the same counts, the results for `COc1cc(N2CCN(C(C)=O)CC2)ccc1Nc1ncc(C#N)c(-c2cnc3ccccn23)n1` are 2.8 and 0.9 µM (≈ 0.422 µg/mL).
Take `CCn1c(-c2nonc2N)nc2c(C#CC(C)(C)O)ncc(OCC3CCCNC3)c21` (stereo unspecified): the logD in the series “physchem [1]” (pH 7.4, LogD7.4) was 0.6. In “physchem [2]”, this compound showed a thermodynamic solubility of 135 µM (≈ 57.4 µg/mL).
`Nc1ccc(OCc2ccccc2)cc1` [4-BENZYLOXYANILINE] had a logD in “physchem [1]” (pH 7.4, LogD7.4) of 2.2. This compound also registered a solubility (thermodynamic) in the series “physchem [2]” of 468 µM (≈ 93.2 µg/mL).
In the case of `COc1ccc(-c2csc(NC(=O)c3c(C)noc3C)n2)cc1OC`, in the series “physchem [1]” (pH 7.4), the logD turned out to be 3.16. Moreover, the thermodynamic solubility in the series “physchem [2]” was 2 µM (≈ 0.719 µg/mL).
In “physchem [1]” (pH 7.4, LogD7.4), `CC1(C)N=C(N)N=C(N)N1c1ccc(Oc2ccc(Cl)cc2)c(Cl)c1` had a logD of 0.79. In the series “physchem [2]”, the solubility (thermodynamic) worked out at 372 µM (≈ 141 µg/mL).
On the same counts, the results for `Cc1cc(C)cc(-c2[nH]c3ccc(C(C)(C)C(=O)N4C5CCC4CC5)cc3c2[C@H](C)CNCCc2ccncc2)c1` are 4.35 and 148 µM (≈ 81.2 µg/mL).
As to `CC1(C)C(=O)N(c2ccc(SC(F)(F)F)cc2)C(=O)N1Cc1ccnc(N2CCOCC2)c1`, the logD in the series “physchem [1]” (pH 7.4, LogD7.4) came out at 3.73. The same compound returned a solubility (thermodynamic) in the series “physchem [2]” of 3 µM (≈ 1.44 µg/mL).
With `Cc1cc2c(F)c(Oc3ncnn4cc(OC[C@@H](C)OC(=O)[C@H](C)N)c(C)c34)ccc2[nH]1` [BRIVANIB ALANINATE], the logD in “physchem [1]” (pH 7.4, LogD7.4) was found to be 3.19. Also, the solubility (thermodynamic) in the series “physchem [2]” came out at 37.2 µM (≈ 16.4 µg/mL).
In the series “physchem [1]” (pH 7.4, LogD7.4), `COc1ccc(Nc2cc(Nc3ccc(OCC(O)CN(C)C)cc3)ncn2)cc1` (stereo unspecified) registered a logD of 1.5. This compound also showed a thermodynamic solubility in “physchem [2]” of 12 µM (≈ 4.91 µg/mL).
As for `Cc1nn(C2CCN(C)CC2)cc1-c1cnc(N)c(-c2nc3ccccc3o2)c1`, in “physchem [1]” (pH 7.4, LogD7.4), the logD amounted to 3.4. Besides, the thermodynamic solubility in the series “physchem [2]” stood at 21.4 µM (≈ 8.31 µg/mL).
On the same counts, the results for `CNc1cccc(CCCc2ccc(C[C@H](NC(=O)c3c(Cl)cccc3Cl)C(=O)O)cc2)n1` are 0.57 and 1510 µM (≈ 736 µg/mL).
Turning to `O=c1cc(-c2ccc(O)cc2)[nH]c2ccccc12`, the logD in “physchem [1]” (pH 7.4, LogD7.4) was 2.34. Besides, the thermodynamic solubility in “physchem [2]” worked out at 4.7 µM (≈ 1.12 µg/mL).
The compound `Cn1cnc(-c2ccccc2)c1-c1nc2c(N)ncnc2s1` yielded a logD in the series “physchem [1]” (pH 7.4, LogD7.4) of 2.69. Further, the solubility (thermodynamic) in “physchem [2]” was determined as 162 µM (≈ 50 µg/mL).
Compound `COc1cc(C(=O)NS(=O)(=O)c2ccccc2C)ccc1Cc1cn(C)c2ccc(C(=O)NCCc3ccccc3)cc12` displayed a logD in “physchem [1]” (pH 7.4, LogD7.4) of 2.51. This compound also had a solubility (thermodynamic) in the series “physchem [2]” of 144 µM (≈ 86.1 µg/mL).
In the case of `CN(C)C(=O)[C@H](Cc1ccccc1)NC(=O)c1cc2cc(F)ccc2[nH]1`, the logD in “physchem [1]” (pH 7.4, LogD7.4) stood at 3.5. This compound also returned a thermodynamic solubility in the series “physchem [2]” of 3.6 µM (≈ 1.27 µg/mL).
With `Cc1ccc(NC(=O)c2ccnc(N3CCOCC3)c2)cc1Nc1ccnc(Cl)n1`, the logD in “physchem [1]” (pH 7.4, LogD7.4) is 3.1. Further, the solubility (thermodynamic) in the series “physchem [2]” is 15.1 µM (≈ 6.42 µg/mL).
On the same counts, the results for `CCn1c2nc(=O)n(C)c(=O)c-2cc2ccccc21` are 1.1 and 324 µM (≈ 82.6 µg/mL).
`COc1cc(OC2CCN(C)CC2)c2c(Nc3cccc4c3OCO4)ncnc2c1` returned a pH-dependent lipophilicity (logD) in the series “physchem [1]” (pH 7.4, LogD7.4) of 3.02. The solubility (thermodynamic) in “physchem [2]” turned out to be 91.2 µM (≈ 37.3 µg/mL).
Turning to `CNC(=O)c1cc(-c2ccccc2)sc1NC(N)=O`, the logD in the series “physchem [1]” (pH 7.4, LogD7.4) was found to be 3.19. For the same compound, the thermodynamic solubility in the series “physchem [2]” is 12 µM (≈ 3.3 µg/mL).
Compound `Cc1ccc(CO)cc1N(C)c1ccnc(Nc2cc(CN3CCOCC3)cc(N3CCOCC3)c2)n1` came in with a logD in the series “physchem [1]” (pH 7.4, LogD7.4) of 3. The compound also yielded a solubility (thermodynamic) in “physchem [2]” of 372 µM (≈ 187 µg/mL).
Compound `Cc1c(-c2ccccc2F)c(=O)n(C[C@H](N)c2ccccc2)c(=O)n1Cc1c(F)cccc1F` returned a pH-dependent lipophilicity (logD) in the series “physchem [1]” (pH 7.4, LogD7.4) of 2.76. This compound displayed a thermodynamic solubility in the series “physchem [2]” of 407 µM (≈ 190 µg/mL).
`Cc1ccc(NC(=O)c2cccc(N3CCOCC3)c2)cc1NC(=O)c1ccc(OCc2ccncc2)cc1` had a logD in “physchem [1]” (pH 7.4, LogD7.4) of 3.2. In the series “physchem [2]”, this compound displayed a thermodynamic solubility of 0.5 µM (≈ 0.261 µg/mL).
For `Clc1ccc(CN(Cc2ccc(Cl)cc2)c2nnn[nH]2)cc1`, the logD in “physchem [1]” (pH 7.4, LogD7.4) was 2.74. In addition, the solubility (thermodynamic) in “physchem [2]” came out at 118 µM (≈ 39.3 µg/mL).
On the same counts, the results for `CN1CCN([C@H]2C[C@@H](c3nc(-c4ccc5ccc(-c6ccccc6)nc5c4)c4c(N)nccn43)C2)CC1` are 3.2 and 204 µM (≈ 100 µg/mL).
`COc1cc(C(=O)NS(=O)(=O)c2ccccc2)ccc1Cn1ccc2ccc(NC(=O)OC3CCCC3)cc21` came in with a logD in the series “physchem [1]” (pH 7.4, LogD7.4) of 2.2. The compound also returned a solubility (thermodynamic) in the series “physchem [2]” of 5.1 µM (≈ 2.79 µg/mL).
On the same counts, the results for `Cc1ccc(NC(=O)N2CCN(C[C@@H]3CCCN(C4CC4)C3)CC2)cc1Cl` are 3.37 and 575 µM (≈ 225 µg/mL).
In the case of `COc1ccc(C(=O)C2CCN(C(=O)c3ccco3)CC2)cc1`, the logD in the series “physchem [1]” (pH 7.4, LogD7.4) came to 2.42. The compound further had a solubility (thermodynamic) in the series “physchem [2]” of 380 µM (≈ 119 µg/mL).
As to `C[C@@H](Oc1cccc2ncnc(Nc3ccc4c(cnn4Cc4cscn4)c3)c12)C(=O)N1CCOCC1`, the logD in “physchem [1]” (pH 7.4, LogD7.4) was determined as 2.81. In addition, the thermodynamic solubility in “physchem [2]” turned out to be 151 µM (≈ 78.1 µg/mL).
On the same counts, the results for `CS(=O)(=O)c1ccc(C(=O)Nc2ccc(F)cc2)c[n+]1[O-]` are 0.84 and 219 µM (≈ 67.9 µg/mL).
